Results: article PMC7956560, “New 3-Aryl-2-(2-thienyl)acrylonitriles with High Activity Against Hepatoma Cells” (International Journal of Molecular Sciences, 2021)

Assays:
[1] = system: non-malignant murine AML-12 hepatocytes; assay: Growth inhibition, crystal violet staining, AML-12; assay type: cell-based
Protocol: The well-differentiated p53 wild-type human hepatoblastoma cell line HepG2 (ATCC# 8065) and the highly differentiated p53 mutated human hepatocellular carcinoma cell line Huh-7 (JCRB#0403) were grown in RPMI 1640 medium supplemented with 10% fetal bovine serum and 100 U/mL penicillin and […] streptomycin. Murine AML-12 hepatocytes were obtained from ATCC (CRL-2254) and grown in DMEM/F-12 Glutamax medium supplemented with 10% fetal bovine serum, 10 µg/mL insulin, 5.5 µg/mL transferrin, 5 ng/mL selenium (Gibco ITS-G 100X) and 40 ng/mL dexamethasone (Sigma-Aldrich). All cell lines were incubated in a 37 °C, 5% CO2, 95% humidified atmosphere.
Treatment-induced changes in cell number were evaluated by crystal violet staining, as previously described. Briefly, 1.500 cells per well were seeded in 96-well plates for 24 h at 37 °C, 5% CO2. For the experiments with HepG2 and Huh-7 cell lines, cells were incubated with rising concentrations (0–20 µM) of the new compounds (1a–1o) for 48 h. AML12-cells were treated with compounds 1a, 1b, 1c, 1e, 1i and 1j for 48 h and at concentrations ranging from 0.5–64 µM. Thereafter, the cells were fixed with 1% glutaraldehyde and stained with 0.1% crystal violet (Sigma-Aldrich). The unbound dye was removed by rinsing with water. Bound crystal violet was solubilized with 0.2% Triton X-100 (Sigma-Aldrich). Light extinction of crystal violet, which increases linearly with cell number, was analyzed at 570 nm using an ELISA-Reader (Dynex Technologies, Denkendorf, Germany). All experiments were carried out in duplicate or triplicate.

HepG2 cells = assay: Colony-formation assay; assay type: cell-based, human
Protocol: HepG2 cells were seeded in 6-well plates at a density of 300 cells/well and allowed to attach overnight. […] Then, the plates were washed twice with PBS, fixed with 4% formaldehyde for 1 h, and stained with 0.5% crystal violet for 3 min. Excessive crystal violet was washed out and the colonies were counted under the microscope. A colony was defined as a cell aggregate with 50 or more cells. Representative images were taken with a kappa digital camera system (Kappa Optronics GmbH, Germany). A total of n = 3 experiments were performed, and significance was tested by one-way ANOVA assays.

[2] = system: caspase-3 activity of HepG2 cells; assay: Apoptosis-specific caspase-3 activity; assay type: cell-based, human; settings: HepG2, 1 and 10 µM, 24 h
Protocol: Changes in caspase-3 activity were measured by the cleavage of the fluorogenic substrate AC-DEVD-AMC (EMD Millipore, Billerica, MA, USA), as described previously. After 24 h of incubation with 1a, 1b, 1c, 1e and sorafenib (1 and 10 µM) the cells were harvested and lysed with lysis buffer. Subsequently, the lysates were incubated for 1 h at 37 °C with a substrate solution containing 20 μg/mL AC-DEVD-AMC, 20 mM HEPES, 10% glycerol and 2 mM DTT at pH 7.5. Substrate cleavage was measured fluorometrically using a Varioskan Flash Fluorometer (Thermo Fisher Scientific, Waltham, MA, USA; filter sets: ex 360/40 nm, em 460/10 nm). n = 3 independent measurements were performed in triplicate, and data are given as the mean percentage increase ± SD above control, which was set 100%.

## COc1ccc(C=C(C#N)c2cccs2)cc1O [Compound 1c, 2-[1-Cyano-2-(3-hydroxy-4-methoxyphenyl)-(E)-ethenyl)]-thiophene]
[1]; AML-12 vs hepatoma cells (HepG2, Huh-7), 48 h
  IC50 against AML-12 hepatocytes relative to hepatoma cells: up to 10 fold
[1]; Mus musculus, AML12, 48 h incubation, mean ± SD, read-out: Anti-proliferative activity IC50, AML-12
  IC50: 1810 ± 310 nM
HepG2 cells; 1, 5, 10 µM, 14 days
  effect on HepG2 colony formation (in words): significantly inhibited HepG2 colony formation
HepG2 cells; HepG2, after two weeks
  inhibition of colony formation: ~100%
[2]
  caspase-3 activity (in words): dose-dependently induced caspase-3 activity
